Laboratory results from ChEMBL document CHEMBL2021864, “Investigating the activity of quinine analogues versus chloroquine resistant Plasmodium falciparum” (Bioorg Med Chem, 2012).

Tested on: Plasmodium falciparum
Experiment: microbe, parasite or virus in culture
Assay type: functional, organism-based
Details: Dd2, 72 h
Description: Antimalarial activity against chloroquine resistant Plasmodium falciparum Dd2 after 72 hrs by SYBP Green I dye staining

Q: For `COc1ccc2nccc([C@@H](O)[C@H]3C[C@H]4CCN3C[C@@H]4/C=C/c3ccccc3)c2c1`, which IC50 is on record?
A: > 500 nM

Q: For `COc1ccc2nccc([C@@H](O)[C@H]3C[C@H]4CCN3C[C@@H]4/C=C/c3ccc(C)cc3)c2c1`, which IC50 is on record?
A: > 500 nM

Q: For `COc1ccc2nccc([C@@H](O)[C@H]3C[C@H]4CCN3C[C@@H]4/C=C/c3ccccc3C)c2c1`, which IC50 is on record?
A: > 500 nM

Q: With `COc1ccc2nccc([C@@H](O)[C@H]3C[C@H]4CCN3C[C@@H]4/C=C/c3ccc4ccccc4c3)c2c1` as the molecule, how does the IC50 read?
A: > 1500 nM

Q: Which IC50 does the source give for `COc1ccc2nccc([C@@H](O)[C@H]3C[C@H]4CCN3C[C@@H]4/C=C/c3cccc4ccccc34)c2c1` here?
A: > 500 nM

Q: For `COc1ccc2nccc([C@@H](O)[C@H]3C[C@H]4CCN3C[C@@H]4/C=C/c3ccc(-c4ccccc4)cc3)c2c1`, which IC50 is on record?
A: 184 nM

Q: With `CCOC(=O)c1ccc(/C=C/[C@H]2CN3CC[C@@H]2C[C@@H]3[C@H](O)c2ccnc3ccc(OC)cc23)cc1` as the molecule, how does the IC50 read?
A: 318 nM

Q: Which IC50 does the source give for `COc1ccc2nccc([C@@H](O)[C@H]3C[C@H]4CCN3C[C@@H]4/C=C/c3ccc(F)cc3)c2c1` here?
A: > 500 nM

Q: Which IC50 does the source give for `COc1ccc2nccc([C@@H](O)[C@H]3C[C@H]4CCN3C[C@@H]4/C=C/c3cccc(F)c3)c2c1` here?
A: 733 nM

Q: For `COc1ccc2nccc([C@@H](O)[C@H]3C[C@H]4CCN3C[C@@H]4/C=C/c3ccc(Cl)cc3)c2c1`, which IC50 is on record?
A: > 500 nM

Q: For `COc1ccc2nccc([C@@H](O)[C@H]3C[C@H]4CCN3C[C@@H]4/C=C/c3ccc(C(F)(F)F)cc3)c2c1`, which IC50 is on record?
A: 485 nM

Q: With `COc1ccc2nccc([C@@H](O)[C@H]3C[C@H]4CCN3C[C@@H]4/C=C/c3cccc(C(F)(F)F)c3)c2c1` as the molecule, how does the IC50 read?
A: > 500 nM

Q: Which IC50 does the source give for `COc1ccc(/C=C/[C@H]2CN3CC[C@@H]2C[C@@H]3[C@H](O)c2ccnc3ccc(OC)cc23)cc1` here?
A: > 500 nM

Q: For `COc1cccc(/C=C/[C@H]2CN3CC[C@@H]2C[C@@H]3[C@H](O)c2ccnc3ccc(OC)cc23)c1`, which IC50 is on record?
A: > 500 nM

Q: Which IC50 does the source give for `COc1ccc2nccc([C@@H](O)[C@H]3C[C@H]4CCN3C[C@@H]4/C=C/c3ccc4c(c3)OCO4)c2c1` here?
A: > 500 nM

Q: With `O[C@H](c1ccnc2ccccc12)[C@@H]1C[C@@H]2CCN1C[C@@H]2/C=C/c1ccc(-c2ccccc2)cc1` as the molecule, how does the IC50 read?
A: 176 nM

Tested on: not listed separately
Experiment: Inhibition of beta-hematin formation after 16 hrs at pH 5.2 by microplate reader
Assay type: functional
Details: not given

Q: For `CCOC(=O)c1ccc(/C=C/[C@H]2CN3CC[C@@H]2C[C@@H]3[C@H](O)c2ccnc3ccc(OC)cc23)cc1`, which IC50 is on record?
A: 54000 nM

Q: For `COc1ccc2nccc([C@@H](O)[C@H]3C[C@H]4CCN3C[C@@H]4/C=C/c3ccc(F)cc3)c2c1`, which IC50 is on record?
A: 44000 nM

Q: For `COc1ccc2nccc([C@@H](O)[C@H]3C[C@H]4CCN3C[C@@H]4/C=C/c3ccc(C(F)(F)F)cc3)c2c1`, which IC50 is on record?
A: 100000 nM

Q: For `COc1ccc2nccc([C@@H](O)[C@H]3C[C@H]4CCN3C[C@@H]4/C=C/c3cccc(C(F)(F)F)c3)c2c1`, which IC50 is on record?
A: 52000 nM

Tested on: not listed separately
Experiment: Inhibition of beta-hematin formation after 16 hrs at pH 5.6 by microplate reader
Assay type: functional
Details: not given

Q: With `CCOC(=O)c1ccc(/C=C/[C@H]2CN3CC[C@@H]2C[C@@H]3[C@H](O)c2ccnc3ccc(OC)cc23)cc1` as the molecule, how does the IC50 read?
A: 40000 nM

Q: Which IC50 does the source give for `COc1ccc2nccc([C@@H](O)[C@H]3C[C@H]4CCN3C[C@@H]4/C=C/c3ccc(F)cc3)c2c1` here?
A: 23000 nM

Q: Which IC50 does the source give for `COc1ccc2nccc([C@@H](O)[C@H]3C[C@H]4CCN3C[C@@H]4/C=C/c3ccc(C(F)(F)F)cc3)c2c1` here?
A: 46000 nM

Q: For `O[C@H](c1ccnc2ccccc12)[C@@H]1C[C@@H]2CCN1C[C@@H]2/C=C/c1ccc(-c2ccccc2)cc1`, which IC50 is on record?
A: 116000 nM

Tested on: Plasmodium falciparum
Experiment: microbe, parasite or virus in culture
Assay type: functional, organism-based
Details: HB3, 72 h
Description: Antimalarial activity against chloroquine sensitive Plasmodium falciparum HB3 after 72 hrs by SYBP Green I dye staining

Q: For `COc1ccc2nccc([C@@H](O)[C@H]3C[C@H]4CCN3C[C@@H]4/C=C/c3ccccc3)c2c1`, which IC50 is on record?
A: > 500 nM

Q: For `COc1ccc2nccc([C@@H](O)[C@H]3C[C@H]4CCN3C[C@@H]4/C=C/c3ccc(C)cc3)c2c1`, which IC50 is on record?
A: > 500 nM

Q: Which IC50 does the source give for `COc1ccc2nccc([C@@H](O)[C@H]3C[C@H]4CCN3C[C@@H]4/C=C/c3ccccc3C)c2c1` here?
A: > 500 nM

Q: Which IC50 does the source give for `COc1ccc2nccc([C@@H](O)[C@H]3C[C@H]4CCN3C[C@@H]4/C=C/c3ccc4ccccc4c3)c2c1` here?
A: > 500 nM

Q: With `COc1ccc2nccc([C@@H](O)[C@H]3C[C@H]4CCN3C[C@@H]4/C=C/c3cccc4ccccc34)c2c1` as the molecule, how does the IC50 read?
A: > 500 nM

Q: Which IC50 does the source give for `COc1ccc2nccc([C@@H](O)[C@H]3C[C@H]4CCN3C[C@@H]4/C=C/c3ccc(-c4ccccc4)cc3)c2c1` here?
A: 128 nM

Q: Which IC50 does the source give for `CCOC(=O)c1ccc(/C=C/[C@H]2CN3CC[C@@H]2C[C@@H]3[C@H](O)c2ccnc3ccc(OC)cc23)cc1` here?
A: 428 nM

Q: For `COc1ccc2nccc([C@@H](O)[C@H]3C[C@H]4CCN3C[C@@H]4/C=C/c3ccc(F)cc3)c2c1`, which IC50 is on record?
A: > 500 nM

Q: Which IC50 does the source give for `COc1ccc2nccc([C@@H](O)[C@H]3C[C@H]4CCN3C[C@@H]4/C=C/c3cccc(F)c3)c2c1` here?
A: 145 nM

Q: Which IC50 does the source give for `COc1ccc2nccc([C@@H](O)[C@H]3C[C@H]4CCN3C[C@@H]4/C=C/c3ccc(Cl)cc3)c2c1` here?
A: > 500 nM

Q: With `COc1ccc2nccc([C@@H](O)[C@H]3C[C@H]4CCN3C[C@@H]4/C=C/c3ccc(C(F)(F)F)cc3)c2c1` as the molecule, how does the IC50 read?
A: 427 nM

Q: For `COc1ccc2nccc([C@@H](O)[C@H]3C[C@H]4CCN3C[C@@H]4/C=C/c3cccc(C(F)(F)F)c3)c2c1`, which IC50 is on record?
A: > 500 nM

Q: Which IC50 does the source give for `COc1ccc(/C=C/[C@H]2CN3CC[C@@H]2C[C@@H]3[C@H](O)c2ccnc3ccc(OC)cc23)cc1` here?
A: > 500 nM

Q: With `COc1cccc(/C=C/[C@H]2CN3CC[C@@H]2C[C@@H]3[C@H](O)c2ccnc3ccc(OC)cc23)c1` as the molecule, how does the IC50 read?
A: > 500 nM

Q: With `COc1ccc2nccc([C@@H](O)[C@H]3C[C@H]4CCN3C[C@@H]4/C=C/c3ccc4c(c3)OCO4)c2c1` as the molecule, how does the IC50 read?
A: > 500 nM

Q: Which IC50 does the source give for `O[C@H](c1ccnc2ccccc12)[C@@H]1C[C@@H]2CCN1C[C@@H]2/C=C/c1ccc(-c2ccccc2)cc1` here?
A: 127 nM
